Results from publication PMC12508057, “Discovery of ETI41 and ETI60: novel selective endosomal Toll-like receptor inhibitors for the treatment of autoimmune diseases” (Experimental & Molecular Medicine, 2025).
Where two headings read alike, the source gives them in different places.

How the values were obtained:
murine TLR9 = target: T1, murine TLR9 (Mus musculus, UniProt Q9EQU3); experiment: SPR binding to TLR9
T1 construct: Fc; purchased R&D Systems
Experimental: Surface plasmon resonance (SPR) analysis was conducted using an SR7500DC SPR System (Reichert) with a CMDH chip for human TLR7 and murine TLR9 (R&D Systems) and a Biacore T200 platform (Cytiva) with a CM5 chip for TLR9–ODN binding. The running buffer contained 0.5% DMSO and phosphate-buffered saline, and 50 mM NaOH was used for regeneration. ETI series compounds were serially diluted from 500 μM and tested for binding affinity. Binding curves were analyzed using Scrubber2 and Biacore T200 evaluation softwares. The dissociation constants (KD) were calculated as KD = kd/ka.
SPR confirmed the binding mechanisms of ETI41 and ETI60 with TLR7 and TLR9, respectively, under three conditions: (a) early endosome (pH 7.4), (b) late endosome without CpG (pH 5.5) and (c) late endosome with CpG (pH 5.5). (a) Both ETI41 and ETI60 were measured for parameters indicating binding affinity, including the KD value presented in Table 3, and were further analyzed under conditions (b) and (c), depending on the presence or absence of ligand, to explain the binding mechanism occurring in TLR9.

TLR5 = target: T2, TLR5 (Homo sapiens, UniProt O60602); experiment: Surface TLR specificity, TNF-α secretion in differentiated THP-1; assay type: cell-based; settings: 2 and 5 μM, differentiated THP-1, FLA-ST
T2 construct: in differentiated human THP-1 cells; endogenous in cells; host or cells: differentiated THP-1
Experimental: (§1) RAW 264.7 and differentiated THP-1 cells were seeded into 96-well plates at 2 × 10^4 cells per well, while Daudi cells were seeded at 5 × 10^4 cells per well. After stabilization for 30 min, cells were stimulated with specific TLR agonists for 4 or 24 h. Supernatants were diluted and transferred to precoated ELISA plates to measure TNF-α secretion using kits from Invitrogen. Optical absorbance was measured using a BioTek Synergy HTX multimode microplate reader, and data were interpolated using BioTek Gen5 software.
(§2) The cells were activated with agonistic ligands: […], TLR3 (poly I:C, 2 μg/ml, 24 h), TLR4 (LPS, 10 or 100 ng/ml, 4 h), TLR5 (FLA-ST, 500 ng/ml, 4 h), TLR7 (ORN06/LyoVec, 2 μg/ml, 24 h; and IMQ, 1 μg/ml, 4 h), TLR8 (TL8-506, 2 μg/ml, 24 h) and TLR9 (ODN2395, 1 μM, 4 h) at various concentrations in RAW 264.7 cells, human Daudi cells and THP-1 cells. Data are from at least three independent experiments (n = 3) and statistical differences between the induced case and other cases were analyzed and verified using a one-tailed Student’s t-test (*P < 0.05, **P < 0.01, ***P < 0.001).
(§3) Given the structural similarities among TLR family proteins, achieving high selectivity is challenging. We tested the effects of ETI41 and ETI60 on various surface TLRs to determine their specificity. […] TLRs activate transcription factors, including NF-κB, MAPKs, c-Jun N-terminal kinase (JNK), extracellular signal-regulated kinase (ERK) and IRF7, which regulate cellular functions such as proliferation and apoptosis. Western blot analysis confirmed that ETI41 and ETI60 inhibited IMQ- or ODN2395-induced phosphorylation of MAPKs (p-ERK, p-JNK and p-p38), nuclear translocation of the NF-κB p65 subunit, Iκ-Bα degradation and IRF7 expression in RAW 264.7 cells (Fig. 2a–c and Supplementary Figs. 2 and 3).

TLR4 = target: T3, TLR4 (Homo sapiens, UniProt O00206); experiment: as above; assay type: cell-based; settings: 2 and 5 μM, differentiated THP-1, LPS
T3 construct: in differentiated human THP-1 cells; endogenous in cells; host or cells: differentiated THP-1
Experimental: as §1, §2, §3

TLR2/TLR6 = experiment: as above; assay type: cell-based, human; settings: 2 and 5 μM, differentiated THP-1, Pam3CSK4
Experimental: as §1, §2, §3

TLR1/TLR2 = experiment: as above; assay type: cell-based, human; settings: 2 and 5 μM, differentiated THP-1, FSL-1
Experimental: as §1, §2, §3

[1] = acidic pH 5.5 (late endosome), without or with CpG
[2] = neutral pH 7.4 (early endosome)

T1 sequence (Q9EQU3 with tags, fused parts or gaps limits assumed): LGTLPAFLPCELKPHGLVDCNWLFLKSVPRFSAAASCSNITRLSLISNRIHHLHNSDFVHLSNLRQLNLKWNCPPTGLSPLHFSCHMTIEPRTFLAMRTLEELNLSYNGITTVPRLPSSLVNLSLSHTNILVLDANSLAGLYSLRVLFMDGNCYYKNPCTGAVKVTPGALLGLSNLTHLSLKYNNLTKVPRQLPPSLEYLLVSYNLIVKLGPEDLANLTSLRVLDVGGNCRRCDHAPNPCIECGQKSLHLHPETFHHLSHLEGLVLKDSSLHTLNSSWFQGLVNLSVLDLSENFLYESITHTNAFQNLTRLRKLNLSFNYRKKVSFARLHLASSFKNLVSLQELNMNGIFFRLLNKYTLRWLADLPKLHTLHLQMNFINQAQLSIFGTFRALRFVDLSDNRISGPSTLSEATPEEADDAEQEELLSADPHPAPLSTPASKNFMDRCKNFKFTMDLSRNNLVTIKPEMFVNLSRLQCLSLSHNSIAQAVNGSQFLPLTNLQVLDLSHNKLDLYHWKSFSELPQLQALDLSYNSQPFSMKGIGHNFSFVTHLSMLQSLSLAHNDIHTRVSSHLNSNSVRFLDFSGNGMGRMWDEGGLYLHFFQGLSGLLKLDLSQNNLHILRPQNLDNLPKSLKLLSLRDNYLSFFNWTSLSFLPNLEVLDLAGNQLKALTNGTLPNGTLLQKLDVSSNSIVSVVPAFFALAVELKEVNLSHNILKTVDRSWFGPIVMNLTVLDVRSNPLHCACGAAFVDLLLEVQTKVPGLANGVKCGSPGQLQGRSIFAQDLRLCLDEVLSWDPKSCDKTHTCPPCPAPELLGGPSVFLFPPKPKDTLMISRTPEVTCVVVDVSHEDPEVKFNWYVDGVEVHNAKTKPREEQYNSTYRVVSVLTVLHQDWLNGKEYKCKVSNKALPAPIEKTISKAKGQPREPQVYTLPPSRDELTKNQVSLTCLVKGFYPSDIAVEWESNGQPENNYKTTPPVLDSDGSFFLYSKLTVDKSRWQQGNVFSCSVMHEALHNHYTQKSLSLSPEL
T2 sequence (O60602 21-858): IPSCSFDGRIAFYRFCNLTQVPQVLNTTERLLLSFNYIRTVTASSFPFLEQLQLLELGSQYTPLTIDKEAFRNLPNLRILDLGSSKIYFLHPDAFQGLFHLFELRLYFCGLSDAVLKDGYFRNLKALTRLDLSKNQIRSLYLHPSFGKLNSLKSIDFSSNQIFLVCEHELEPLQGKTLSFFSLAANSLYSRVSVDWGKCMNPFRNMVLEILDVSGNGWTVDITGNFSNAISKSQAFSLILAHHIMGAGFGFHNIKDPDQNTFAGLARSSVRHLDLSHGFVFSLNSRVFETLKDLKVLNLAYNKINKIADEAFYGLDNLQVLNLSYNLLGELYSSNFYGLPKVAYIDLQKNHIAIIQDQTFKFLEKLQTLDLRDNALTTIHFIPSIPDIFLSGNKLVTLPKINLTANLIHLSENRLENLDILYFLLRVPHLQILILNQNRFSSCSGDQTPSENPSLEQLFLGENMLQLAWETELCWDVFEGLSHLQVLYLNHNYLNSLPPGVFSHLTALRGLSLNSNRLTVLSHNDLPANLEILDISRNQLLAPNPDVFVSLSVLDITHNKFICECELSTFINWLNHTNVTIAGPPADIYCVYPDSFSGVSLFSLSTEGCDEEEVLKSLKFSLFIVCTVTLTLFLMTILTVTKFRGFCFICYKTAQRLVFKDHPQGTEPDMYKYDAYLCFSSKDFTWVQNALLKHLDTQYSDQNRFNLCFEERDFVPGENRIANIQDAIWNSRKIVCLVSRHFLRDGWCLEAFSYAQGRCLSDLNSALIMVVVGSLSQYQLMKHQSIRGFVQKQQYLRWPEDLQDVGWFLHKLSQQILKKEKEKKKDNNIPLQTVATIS
T3 sequence (O00206 24-839): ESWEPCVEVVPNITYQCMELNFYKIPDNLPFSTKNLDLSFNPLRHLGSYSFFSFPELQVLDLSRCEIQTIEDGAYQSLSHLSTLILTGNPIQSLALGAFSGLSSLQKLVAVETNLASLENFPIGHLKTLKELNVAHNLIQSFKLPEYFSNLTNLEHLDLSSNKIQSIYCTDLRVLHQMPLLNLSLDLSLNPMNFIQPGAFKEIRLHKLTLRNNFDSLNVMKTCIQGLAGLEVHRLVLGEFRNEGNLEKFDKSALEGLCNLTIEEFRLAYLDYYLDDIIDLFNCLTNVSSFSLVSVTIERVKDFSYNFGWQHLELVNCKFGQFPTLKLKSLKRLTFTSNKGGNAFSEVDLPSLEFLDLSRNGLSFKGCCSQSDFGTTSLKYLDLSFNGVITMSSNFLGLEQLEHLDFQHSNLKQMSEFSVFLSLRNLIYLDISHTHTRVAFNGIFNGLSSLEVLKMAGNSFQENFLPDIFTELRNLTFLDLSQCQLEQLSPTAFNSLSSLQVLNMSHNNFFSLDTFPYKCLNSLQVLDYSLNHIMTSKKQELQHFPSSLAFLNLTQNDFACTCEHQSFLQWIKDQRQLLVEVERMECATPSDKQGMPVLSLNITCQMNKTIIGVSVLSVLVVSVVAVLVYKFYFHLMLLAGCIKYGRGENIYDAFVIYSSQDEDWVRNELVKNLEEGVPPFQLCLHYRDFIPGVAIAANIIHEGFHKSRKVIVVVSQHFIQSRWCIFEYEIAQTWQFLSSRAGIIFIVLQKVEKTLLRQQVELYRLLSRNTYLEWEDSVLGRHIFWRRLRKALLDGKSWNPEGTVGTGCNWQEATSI
T3 sequence (Q9Y6Y9 19-160 partner): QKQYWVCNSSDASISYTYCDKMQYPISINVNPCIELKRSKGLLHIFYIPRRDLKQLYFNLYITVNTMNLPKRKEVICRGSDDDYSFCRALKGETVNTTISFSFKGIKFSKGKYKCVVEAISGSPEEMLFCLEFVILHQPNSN

| Compound | kd (murine TLR9; Fc-TLR9, pH 7.4) [s⁻¹] | SPR binding to TLR9 (murine TLR9; [1]) | SPR binding to TLR9 (murine TLR9; [2]) | kon (murine TLR9; pH 7.4, read-out: ka) [M⁻¹ s⁻¹] | Inhibition of TLR5 (TNF-α secretion) (TLR5) | Inhibition of TLR4 (TNF-α secretion) (TLR4) | Inhibition of TLR2/TLR6 (TNF-α secretion) (TLR2/TLR6) | Inhibition of TLR1/TLR2 (TNF-α secretion) (TLR1/TLR2) | Toxicity tests (doses ranging from 150 to 300 mg/kg) | Kd (murine TLR9; Fc-TLR9, pH 7.4) [µM] | kon (murine TLR9; Fc-TLR9, pH 7.4, read-out: ka) [M⁻¹ s⁻¹] | Toxicity tests (in vivo) |
| --- | --- | --- | --- | --- | --- | --- | --- | --- | --- | --- | --- | --- |
| Cc1cc2c(N)c3c(nc2n1CCCN(C)C)CCCCCC3 [ETI41] | 0.191 | binding was detected only in the late endosomal state where the natural ligand is present | clear binding affinity | 10 | neither compound inhibited | neither compound inhibited | neither compound inhibited | neither compound inhibited | confirmed their safety | – | – | – |
| COc1ccc2c3c(N)c4c(nc3n(CCCN(C)C)c2c1)CCCC4 [ETI60] | 0.106 | binding was detected only in the late endosomal state where the natural ligand is present | clear binding affinity | – | neither compound inhibited | neither compound inhibited | neither compound inhibited | neither compound inhibited | – | 1500 | 71 | confirmed their safety |
